Results on 24 molecules are retold here after patent US20100305068A1, “COMPOUNDS AND METHODS FOR MODULATING PROTEIN TRAFFICKING” (priority 2006, published 2010).

The test relates to pdr5 ypt1^ts cells. Kind of test: microbe, parasite or virus in culture. In kind it is cell-based, yeast. To be noted: 37° C.; for minimal effective concentration: Saccharomyces cerevisiae, lowest concentration tested giving growth above the 0 μM background, read-out: ypt1-ts MRC (minimal rescue concentration); for minimal effective concentration / optical density, ypt1-ts, 0.39 / optical density, ypt1-ts, 0.78 / optical density, ypt1-ts, 1.56 / optical density, ypt1-ts, 3.13 / optical density, ypt1-ts, 6.25 / optical density, ypt1-ts, 12.5 / optical density, ypt1-ts, 25: Table 2; for optical density, ypt1-ts, 0.39: 0.39 μM compound; for optical density, ypt1-ts, 0.39 / optical density, ypt1-ts, 0.78 / optical density, ypt1-ts, 1.56 / optical density, ypt1-ts, 3.13 / optical density, ypt1-ts, 6.25 / optical density, ypt1-ts, 12.5 / optical density, ypt1-ts, 25: background (0 μM) 0.058; for optical density, ypt1-ts, 0.78: 0.78 μM compound; for optical density, ypt1-ts, 1.56: 1.56 μM compound; for optical density, ypt1-ts, 3.13: 3.13 μM compound; for optical density, ypt1-ts, 6.25: 6.25 μM compound; for optical density, ypt1-ts, 12.5: 12.5 μM compound; for optical density, ypt1-ts, 25: 25 μM compound; for optical density, 3.13 uM / optical density, 12.5 uM / optical density, 50 uM: Table 3, background (0 uM) 0.077; for optical density, 3.13 uM: 3.13 uM compound; for optical density, 12.5 uM: 12.5 uM compound; for optical density, 50 uM: 50 uM compound. The method in brief: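 Whole-cell yeast growth-rescue screen: pdr5 ypt1^ts cells (efflux pump inactivated), growth-arrested at 37° C., cultured with compounds at 37° C. Restoration of growth read by optical density.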

For `CC(C)c1c(O)ccc2c1CCC1[C@@](C)(CO)CCC[C@]21C` (stereo partly shown) [HYDROXY (19)TOTAROL], the minimal effective concentration came out at 12.5 µM; the “optical density, ypt1-ts, 0.39” value is listed as 0.098; the “optical density, ypt1-ts, 0.78” value was found to be 0.076; the “optical density, ypt1-ts, 1.56” value was determined as 0.085. Also, the “optical density, ypt1-ts, 3.13” value turned out to be 0.106; the “optical density, ypt1-ts, 6.25” value is reported as 0.125; the “optical density, ypt1-ts, 12.5” value was determined as 0.407; the “optical density, ypt1-ts, 25” value came to 0.515.
Turning to `CCOC(=O)c1c(C)cc(O)c(C=O)c1O` [H[…], ETHYL ESTER], the minimal effective concentration is 3.13 µM; the “optical density, ypt1-ts, 0.39” value is reported as 0.104; the “optical density, ypt1-ts, 0.78” value is listed as 0.078; the “optical density, ypt1-ts, 1.56” value stood at 0.105. Besides, the “optical density, ypt1-ts, 3.13” value is 0.135; the “optical density, ypt1-ts, 6.25” value was 0.204; the “optical density, ypt1-ts, 12.5” value came out at 0.621; the “optical density, ypt1-ts, 25” value came out at 0.645.
Take `CC(C)=CCOc1c2occc2cc2ccc(=O)oc12` [IMPERATORIN]: the minimal effective concentration came out at 12.5 µM; the “optical density, ypt1-ts, 0.39” value is 0.084; the “optical density, ypt1-ts, 0.78” value is on record as 0.064; the “optical density, ypt1-ts, 1.56” value was determined as 0.066. The “optical density, ypt1-ts, 3.13” value is 0.073; the “optical density, ypt1-ts, 6.25” value is on record as 0.082; the “optical density, ypt1-ts, 12.5” value is on record as 0.147; the “optical density, ypt1-ts, 25” value came to 0.244.
As to `COc1ccc(-c2coc3c(OC)c(OC)cc(O)c3c2=O)cc1` [ISO- TECTORIGENIN, 7-METHYL ETHER], the “optical density, 3.13 uM” value came to 0.09; the “optical density, 12.5 uM” value was 0.147; the “optical density, 50 uM” value is 0.595.
The corresponding values for `COc1ccc(C2CC(=O)c3ccc(OC)cc3O2)cc1` (stereo not shown) [LIQUIRITI- GENIN DIMETHYL ETHER] are 0.086, 0.13 and 0.364.
`CCOC(=O)N1CCC(=C2c3ccc(Cl)cc3CCc3cccnc32)CC1` [LORATADINE, reference compound]: the minimal effective concentration was 25 µM.
On to `Oc1ccc2c(c1)OCC1c3cc4c(cc3OC21)OCO4` (stereo not shown) [MAACKIAIN], for which the minimal effective concentration is 25 µM; the “optical density, ypt1-ts, 0.39” value amounted to 0.084; the “optical density, ypt1-ts, 0.78” value is on record as 0.073; the “optical density, ypt1-ts, 1.56” value stood at 0.076. Besides, the “optical density, ypt1-ts, 3.13” value turned out to be 0.103; the “optical density, ypt1-ts, 6.25” value stood at 0.09; the “optical density, ypt1-ts, 12.5” value came out at 0.104; the “optical density, ypt1-ts, 25” value amounted to 0.209.
In the case of `CC(=O)[C@H]1CCC2C3C[C@H](C)C4=CC(=O)CC[C@]4(C)C3[C@@H](O)C[C@@]21C` (stereo partly shown) [MEDRY- SONE, reference compound], the “optical density, 3.13 uM” value stood at 0.114; the “optical density, 12.5 uM” value came out at 0.165; the “optical density, 50 uM” value stood at 0.266.
The corresponding values for `CC(=O)O[C@]1(C(C)=O)CC[C@H]2[C@@H]3C=C(C)C4=CC(=O)CC[C@]4(C)[C@H]3CC[C@@]21C` [MEGESTROL ACETATE, reference compound] are 0.222, 0.341 and 0.202.
The corresponding values for `COc1c2occc2cc2ccc(=O)oc12` [METHOX- SALEN, reference compound] are 0.124, 0.25 and 0.38.
For `COc1cc(C)c2c(=O)cc(-c3ccccc3)oc2c1` [METHOXYVONE], the minimal effective concentration amounted to 12.5 µM; the “optical density, ypt1-ts, 0.39” value turned out to be 0.095; the “optical density, ypt1-ts, 0.78” value is 0.09; the “optical density, ypt1-ts, 1.56” value was 0.09. Also, the “optical density, ypt1-ts, 3.13” value is on record as 0.105; the “optical density, ypt1-ts, 6.25” value is on record as 0.114; the “optical density, ypt1-ts, 12.5” value is listed as 0.142; the “optical density, ypt1-ts, 25” value is listed as 0.258.
In the case of `CCOC(=O)c1c(C)cc(O)c(C)c1O` [METHYL[…], ETHYL ESTER], the minimal effective concentration amounted to 25 µM; the “optical density, ypt1-ts, 0.39” value is recorded as 0.082; the “optical density, ypt1-ts, 0.78” value was 0.073; the “optical density, ypt1-ts, 1.56” value is given as 0.072. The “optical density, ypt1-ts, 3.13” value was found to be 0.084; the “optical density, ypt1-ts, 6.25” value is reported as 0.097; the “optical density, ypt1-ts, 12.5” value amounted to 0.119; the “optical density, ypt1-ts, 25” value is 0.259.
Take `CCN(CC)CCNC(=O)c1cc(Cl)c(N)cc1OC.Cl` [METO- […]- CHLORIDE, reference compound]: the “optical density, 3.13 uM” value was 0.099; the “optical density, 12.5 uM” value worked out at 0.158; the “optical density, 50 uM” value came to 0.555.
`COC(=O)C[C@H]1C(C)(C)C(=O)[C@@H]2CC3=C4CC(=O)O[C@@H](c5ccoc5)[C@]4(C)CCC3[C@]1(C)C2=O` (stereo partly shown) [MEXICANOLIDE]: the minimal effective concentration came to 6.25 µM; the “optical density, ypt1-ts, 0.39” value was 0.092; the “optical density, ypt1-ts, 0.78” value turned out to be 0.069; the “optical density, ypt1-ts, 1.56” value turned out to be 0.076. Moreover, the “optical density, ypt1-ts, 3.13” value amounted to 0.105; the “optical density, ypt1-ts, 6.25” value is listed as 0.216; the “optical density, ypt1-ts, 12.5” value turned out to be 0.377; the “optical density, ypt1-ts, 25” value was determined as 0.573.
Regarding `O=C1c2c(O)ccc(O)c2C(=O)c2c(NCCNCCO)ccc(NCCNCCO)c21` [MITO- XANTHRONE HYDRO- CHLORIDE, reference compound], the “optical density, 3.13 uM” value came out at 0.149; the “optical density, 12.5 uM” value is 0.132; the “optical density, 50 uM” value is on record as 0.313.
Turning to `CCOC(=O)C1=C(C)NC(C)=C(C(=O)OC)C1c1cccc([N+](=O)[O-])c1` (stereo not shown) [NITRENDIPINE, reference compound], the minimal effective concentration stood at 3.13 µM; the “optical density, ypt1-ts, 0.39” value is 0.11; the “optical density, ypt1-ts, 0.78” value came to 0.089; the “optical density, ypt1-ts, 1.56” value was found to be 0.103. In addition, the “optical density, ypt1-ts, 3.13” value was 0.143; the “optical density, ypt1-ts, 6.25” value was 0.309; the “optical density, ypt1-ts, 12.5” value was found to be 0.403; the “optical density, ypt1-ts, 25” value worked out at 0.481.
With `COc1ccc(CC(=O)c2ccc(O)cc2O)cc1` [ONONETIN], the minimal effective concentration amounted to 6.25 µM; the “optical density, ypt1-ts, 0.39” value is given as 0.097; the “optical density, ypt1-ts, 0.78” value is reported as 0.08; the “optical density, ypt1-ts, 1.56” value was 0.096. Further, the “optical density, ypt1-ts, 3.13” value is 0.111; the “optical density, ypt1-ts, 6.25” value is reported as 0.14; the “optical density, ypt1-ts, 12.5” value stood at 0.3; the “optical density, ypt1-ts, 25” value amounted to 0.618.
On to `Clc1ccc(Cl)cc1` [PARA- DICHLORO- BENZENE], for which the “optical density, 3.13 uM” value is 0.169; the “optical density, 12.5 uM” value amounted to 0.28; the “optical density, 50 uM” value came out at 0.202.
As for `COc1c(C(C)C)oc2cc3oc(=O)ccc3cc12` [PEUCEDANIN], the “optical density, 3.13 uM” value is on record as 0.138; the “optical density, 12.5 uM” value is 0.25; the “optical density, 50 uM” value is listed as 0.461.
Turning to `CCCCC1C(=O)N(c2ccccc2)N(c2ccccc2)C1=O` [PHENYLBUTAZONE, reference compound], the minimal effective concentration was 6.25 µM; the “optical density, ypt1-ts, 0.39” value was 0.1; the “optical density, ypt1-ts, 0.78” value is 0.084; the “optical density, ypt1-ts, 1.56” value worked out at 0.094. Further, the “optical density, ypt1-ts, 3.13” value was 0.11; the “optical density, ypt1-ts, 12.5” value came to 0.227; the “optical density, ypt1-ts, 25” value worked out at 0.452.
Regarding `O=C(/C=C/C=C/c1ccc2c(c1)OCO2)N1CCCCC1` [PIPERINE], the “optical density, 3.13 uM” value is listed as 0.107; the “optical density, 12.5 uM” value is listed as 0.135; the “optical density, 50 uM” value was 0.377.
On to `CC(C)=CCOc1cc2oc(=O)ccc2cc1O` [PRENYLETIN], for which the minimal effective concentration was found to be 25 µM; the “optical density, ypt1-ts, 0.39” value worked out at 0.087; the “optical density, ypt1-ts, 0.78” value was determined as 0.072; the “optical density, ypt1-ts, 1.56” value is on record as 0.07. For the same molecule, the “optical density, ypt1-ts, 3.13” value is on record as 0.087; the “optical density, ypt1-ts, 6.25” value was 0.09; the “optical density, ypt1-ts, 12.5” value is given as 0.121; the “optical density, ypt1-ts, 25” value is reported as 0.292.
Take `COC(=O)[C@]1(C)CC[C@]2(C)CC[C@]3(C)C4=CC=C5C(=CC(=O)C(O)=C5C)[C@]4(C)CC[C@@]3(C)[C@@H]2C1` [PRISTIMERIN]: the “optical density, ypt1-ts, 0.39” value was determined as 0.534; the “optical density, ypt1-ts, 0.78” value worked out at 0.332; the “optical density, ypt1-ts, 1.56” value is recorded as 0.669; the “optical density, ypt1-ts, 3.13” value is recorded as 0.703. In addition, the “optical density, ypt1-ts, 6.25” value amounted to 0.68; the “optical density, ypt1-ts, 12.5” value was determined as 0.676; the “optical density, ypt1-ts, 25” value is 0.677.
Turning to `COC(=O)[C@]1(C)CC[C@]2(C)CC[C@]3(C)C4=CCc5c(cc(O)c(O)c5C)[C@]4(C)CC[C@@]3(C)[C@@H]2C1` [PRISTIMEROL], the minimal effective concentration turned out to be 6.25 µM; the “optical density, ypt1-ts, 0.39” value is listed as 0.11; the “optical density, ypt1-ts, 0.78” value is given as 0.079; the “optical density, ypt1-ts, 1.56” value came to 0.101. The “optical density, ypt1-ts, 3.13” value came to 0.114; the “optical density, ypt1-ts, 6.25” value stood at 0.168; the “optical density, ypt1-ts, 12.5” value is on record as 0.362; the “optical density, ypt1-ts, 25” value worked out at 0.591.
